From patent US20070232595A1, “Method for accelerating cutaneous barrier recovery” (Shiseido Company, Ltd., priority 2006, published 2007)

How the values were obtained:
[1] = tested on: hairless mice; assay: Skin barrier recovery (TEWL) after tape stripping with topical application; assay type: in vivo, mouse
Procedure: Permeability barrier function was evaluated by measurement of transepidermal water loss (TEWL) with an electric water analyzer, as described previously(Denda et al, 1998). For barrier recovery experiments, the flank skin on both sides was subjected to repeated tape stripping until the TEWL reached 7-10 mg per cm^2 per h, as described previously(Denda et al, 1998). As for nNOS-deficient mice and wild-type, the TEWL of the ears was measured over the same sites at 1, 3 and 6 hours after tape stripping. This is because the hair shaving may induce barrier disruption. Therefore, the ears that are hairless parts were selected for TEWL measurements. […] […] The areas were covered with plastic membranes for 15 min and then the membranes were removed. Two points on one flank were measured and 4-8 mice were used to evaluate the effect of each treatment. We always disrupted the barrier between 7:00 AM and 8:00 AM and carried out the measurements of the barrier repair thereafter to avoid the influence of circadian rhythm on the repair rate(Denda and Tsuchiya, 2000). TEWL was measured over the same sites at 1, 3 and 6 hours after barrier disruption. The barrier recovery results are expressed as percent recovery, because of variations from day to day in the extent of barrier disruption. In each animal, the percentage recovery was calculated according to the following formula:

[2] = tested on: Normal human epithelial keratinocytes (NHEK); assay: Ca2+ imaging (fura-2) in single cultured keratinocytes; assay type: cell-based
Procedure: Normal human epithelial keratinocytes (NHEK) were purchased from Kurabo (Osaka, Japan). NHEK were cultured in serum-free keratinocyte growth medium, consisting of Humedia-KB2 (Kurabo, Osaka, Japan) supplemented with bovine pituitary extract (0.4% vol/vol), human recombinant epidermal growth (0.1 μg per mL), insulin (10 μg per mL), and hydrocortisol (0.5 μg per mL). The medium was replaced every 2-3 d. For the electrophysiological experiments, NHEK (passage 1-3 cells) were seeded onto collagen-coated glass coverslips and used within 4 d. Ca^2+ imaging in single keratinocytes
NHEK were grown to approximately 80-100% confluency on collagen-coated cover glass chambers (Nalge Nunc, Naperville, Ill.). Changes in [Ca^2+] in single cells were measured by the fura-2 method as described by Grynkiewicz et al. (1985) with minor modifications(Koizumi et al, 1998). In brief, the culture medium was replaced with a balanced salt solution (BSS) of the following composition (mM): NaCl 150, KCl 5, CaCl21.8, MgCl2 1.2, HEPES 25, NaH2PO4 1.2 and D-glucose 10 (pH 7.4) or calcium-free BSS which had the same composition as the above BSS with 1 mM EGTA and no added CaCl2. Cells were loaded with 5 μM fura-2 acetoxymethylester (fura-2AM, Molecular Probes, Eugene, Oreg.) at room temperature (21-23° C.) in BSS for 45 min, washed with BSS, and incubated for a further 30 min to allow de-esterification of the loaded dye. The cover slip was mounted on an inverted epifluorescence microscope (IX70, TS Olympus, Tokyo, Japan), equipped with a 75 W xenon lamp and band-pass filters of 340 and 380 nm. The image data, recorded by a high-sensivity CCD (charge-coupled-device) camera (ORCA-ER, Hamamatsu Photonics, Hamamatsu, Japan) were evaluated with a Ca^2+ analyzing system (AQUACOSMOS/RATIO, Hamamatsu Photonics). SNAP (300 μM), ODQ (10 μM) and nifedipine (50 μM) were dissolved in the BSS and the cells were exposed to the solution by perfusion. We observed four lots of pooled cells for each treatment. […] Data were represented as the ratio of fluorescence intensities at 340 and 380 nm.

[3] = tested on: hairless mice; assay: Epidermal hyperplasia induced by barrier disruption (acetone) under low humidity; assay type: in vivo, mouse; conditions: for epidermal proliferation (number of BrdU-positive cells, DNA synthesis) / epidermal thickness: topical application after acetone treatment under low humidity, compared with acetone treated skin; for epidermal hyperplasia induced by acetone treatment under low environmental humidity: topical application, 1 µM, 48 hours in dry condition
Procedure: Hairless mice were kept separately in 7.2-liter cages in which the relative humidity was maintained at less than 10% with dry air as described previously(Denda et al, 1998). The temperature was the same in all cases (22-25° C.), and fresh air was circulated 100 times per hour. Animals were kept out of the direct stream of air. During the experiments, the animal's behavior was not restricted. The level of NH3 was always below 1 ppm. Animals were first kept in a dry condition for 48 hours and then the skin on both flanks was treated with acetone-soaked cotton balls, as described previously(Denda et al, 1998). The procedure was terminated when TEWL reached 2.5-3.5 mg per cm^2 per h. Immediately after the barrier disruption, 100 μl of nNOS inhibitor and ODQ aqueous solution (1 μM) was applied on one side of the treated area. Water was applied on the other side. Then the animals were again kept in the dry condition for 48 hours. After the experiments, animals were euthanized with diethylether inhalation and skin samples were taken from the treated areas. One hour before euthanization, 20 μl per g body weight of a 10 mM solution of bromodeoxyuridine (BrdU) was injected intraperitoneally. Untreated control mice were also treated with BrdU at the same time. After fixation with 4% paraformaldehyde, full thickness skin samples were embedded in paraffin, sectioned (4 μm), and processed for hematoxylin and eosin staining. On each section, five areas were selected at random; the thickness of the epidermis was measured with an optical micrometer, and the mean value was calculated. For the assessment of DNA synthesis, the sections were immunostained with anti-BrdU antibodies. On each section, five areas were selected at random from one section; the number of immunostained cells per 1 mm of epidermis was counted and the epidermal thickness was measured with an optical micrometer. The mean value was calculated. Measurements were carried out in an observer-blinded fashion. NO evaluation in hairless mouse epidermis

[4] = tested on: skin of hairless mice; assay: NO release from skin organ culture after tape stripping; design: species or system mouse; conditions: pre-incubation with inhibitor 100 μM; skin organ culture in PBS, 30 min at 37° C.
From the text: Four male hairless mice (7-10 wk old) were killed by cervical dislocation under anesthesia and skin samples were taken immediately from both flanks. Subcutaneous fat was removed with a scalpel and the skin samples that contained epidermis and dermis, were cut into squares (1.5×1.5 cm^2). […] of skin from the two flanks of each animal were placed, epidermis side upwards, in separate 35-mm culture dishes kept in an ice/water bath, and one of them was tape-stripped four times. The other piece of skin was not treated. One milliliter of phosphate-buffered saline (PBS) was added to both dishes, which were incubated for 30 min at 37° C. After the incubation, 50 μL aliquots of the PBS were removed. NO released into the PBS was quantified using a total nitric oxide assay kit (Immuno-Biological Laboratories Co., Ltd, Gunma, Japan), according to the manufacturer's instruction.

[5] = topical application of 1 μM aqueous solution, 1, 3 and 6 hours after tape stripping, vs water control

CC(=O)NC(C(=O)O)C(C)(C)SN=O (racemic) [SNAP, S-nitroso-N-acetyl-D,L-penicillamine]
barrier recovery after tape stripping (percent recovery of TEWL) ([1]; topical application of one millimolar solution of SNAP, vs control): delayed skin barrier recovery | intracellular calcium concentration (ratio 340 nm/380 nm, fura-2) ([2]; 300 μM SNAP, calcium-containing BSS): increased | intracellular calcium concentration (ratio 340 nm/380 nm, fura-2) ([2]; SNAP, calcium-free medium): an increase of [Ca^2+] was induced

COC(=O)[C@@H](N)CCCNC(=N)N[N+](=O)[O-] [L-NAMA, L-N(G)-nitro-L-arginine methyl ester]
barrier recovery after tape stripping (percent recovery of TEWL) [1, 5]: accelerated the barrier repair

O=c1onc2n1-c1cc(Br)ccc1OC2 [NS 2028, 4H-8-bromo-1,2,4-oxadiazolo[3,4-dibenz[b][1,4]oxazin-1-one]
barrier recovery after tape stripping (percent recovery of TEWL) [1, 5]: accelerated the barrier recovery

O=c1onc2cnc3ccccc3n12 [ODQ, 1H-[1,2,4]oxadiazolo[4,3-a]quinoxalin-1-one]
barrier recovery after tape stripping (percent recovery of TEWL) [1, 5]: accelerated the barrier recovery | effect on increase of intracellular calcium induced by SNAP ([2]; 300 μM SNAP with 10 μM ODQ or 50 μM nifedipine): blocked | epidermal proliferation (number of BrdU-positive cells, DNA synthesis) [3]: Significant reductions | epidermal thickness [3]: Significant reductions | epidermal hyperplasia induced by acetone treatment under low environmental humidity [3]: prevented the hyperplasia

Nc1c[n+](N2CCOCC2)no1.[Cl-] [SIN, SIN-1 chloride]
barrier recovery after tape stripping (percent recovery of TEWL) [1, 5]: delayed the barrier recovery

CSC(=N)N [iNOS inhibitor, S-methylisothiourea]
barrier recovery after tape stripping (percent recovery of TEWL) [1, 5]: did not affect the barrier recovery | increase of NO level (release) after tape stripping [4]: did not affect

CCCNC(=N)NCCC[C@H](N)C(=O)O [nNOS inhibitor, N^ω-propyl-L-arginine]
barrier recovery after tape stripping (percent recovery of TEWL) [1, 5]: accelerated the barrier repair | increase of NO level (release) after tape stripping [4]: blocked | epidermal proliferation (number of BrdU-positive cells, DNA synthesis) [3]: Significant reductions | epidermal thickness [3]: Significant reductions | epidermal hyperplasia induced by acetone treatment under low environmental humidity [3]: prevented the epidermal hyperplasia
